Measurements taken from US20020177172A1, “RESTORATION OF PLATELET AGGREGATION BY ANTIBODY ADMINISTRATION AFTER GPIIB/IIIA ANTAGONIST TREATMENT” (priority 1996, published 2002).
≈ marks a conversion by molar mass, not a printed value. Structures can show the parent of a compound that is named as a salt. Square brackets hold non-standard residues; d marks the D form. Peptide text beside a SMILES is read from it. NMeR = CN[C@@H](CCCNC(=N)N)C(=O)O; 3Amb = NCc1cccc(C(=O)O)c1; dAbu = CC[C@@H](N)C(=O)O

Legend:
[1] = tested on: platelet aggregation; assay: In vivo platelet aggregation, dogs (ex vivo aggregation response); settings: dog, capsule of 10 mg BID for 4 days (15 mg on day 3)
Protocol: Three beagle dogs were therefore infused with compound B while monitoring blood pressure, heart rate, PT (prothrombin time), and aPTT (activated partial thromboplastin time). […] In a second study, a dog was treated with a capsule of 10 mg of compound A, BID for 4 days (15 mg on day 3) prior to antibody testing. […] Four hours after the last oral dose of compound A, a dose of pentobarbitol and the monoclional antibody ([…]-9F7) was infused by a i.v. bolus injection. Each bolus contained a 5-fold molar excess over drug plasma levels (about 50 mg of Mab 9F7). A control dog was given identical amounts of antibody without compound A oral dosing.

[2] = tested on: human platelet rich plasma; assay: Aggregation of human platelet rich plasma; assay type: cell-based; settings: read-out: inhibition of aggregation by the compound itself; for inhibition at 0.05 µM: 5×10^−8 M
Protocol: Human platelet rich plasma (“PRP”) was prepared by centrifugation of citrated whole blood at 970×g for 3.5 minutes at room temperature. PRP was carefully removed from red cells and placed in 50 mL conical tubes. Platelet aggregation was measured as an increase in light transmission in an aggregometer (Bio/Data model PAP-4, Horsham, Pa.) using ADP (20 μM) or collagen (4 μg/mL) as the agonist.
Antibodies produced according to Example 4 were assayed in aggregation for their ability to neutralize (at 60 nM) the GPIIb/IIIa antagonists compound B (5×10^−8 M), compound D (1×10^−7 M), and Merck compound MK383 (5×10^−8 M), as a means of screening which ones recognized the antagonists in a useful manner. The levels of antiplatelet compounds used provided at least 50 percent inhibition of aggregation by themselves. Results are illustrated in FIG. 3.
Collagen-induced platelet aggregation was measured in the presence of 50 nM compound B or 100 nM compound D over 3 minutes in the presence or absence of Mab 9F7 inclusion at 60 nM.

[3] = Half-life of compound B in guinea pig; assay type: in vivo
[4] = Removal from circulation / elimination half-life; assay type: in vivo; settings: for route of removal from circulation: in vivo; for change of elimination half-life with decreased creatinine clearance: renal impairment
[5] = Total and free plasma levels of compound B in dog; assay type: in vivo; settings: three bolus infusions of Mab 9F7, FIG. 11
Protocol: In a second study, a dog was treated with a capsule of 10 mg of compound A, BID for 4 days (15 mg on day 3) prior to antibody testing. […] Four hours after the last oral dose of compound A, a dose of pentobarbitol and the monoclional antibody (P187-9F7) was infused by a i.v. bolus injection. Each bolus contained a 5-fold molar excess over drug plasma levels (about 50 mg of Mab 9F7). A control dog was given identical amounts of antibody without compound A oral dosing. Blood samples were collected for aggregation assays at 5, 15, 30 and 60 minutes after each bolus administration of antibody, plasma levels of Mab 9F7, and total and free plasma levels of compound B.
This method involves the extraction of compound B and an internal standard (compound F, shown hereinafter) from acidified dog plasma with a C18 solid phase extraction column. Analysis is by reverse phase high performance liquid chromatography with fluorescence detection. Calibration standards were prepared in human heparinized plasma. Quality control pools were prepared in dog plasma and quantified using the human calibration curve. A linear weighted (1/concentration squared) least squares regression analysis was used to quantify samples. This method was validated with a minimum quantifiable level of 1.00 ng/mL. […]
Removed the samples to be analyzed from the freezer and thawed. […] The filtrate was then analyzed by the method given below. […]

[6] = tested on: platelet aggregation; assay: IC50 values of antiplatelet compounds (FIG. 1 legend); assay type: cell-based
[7] = tested on: heparinized human whole blood; assay: Activated clotting time (ACT) in heparinized human whole blood, Hemochron-8000; assay type: cell-based; settings: 1.4 Units/mL heparin; FIG. 1
Excerpt: This process can be used to calculate a standardized concentration curve for various known concentrations of anti-platelet compounds. The process can also be used to measure activated clotting times for use in calculating the ACT number for the processes of the invention.
A. Blood was drawn from a human volunteer into a syringe containing heparin. The heparin to whole blood ratio was 1:10 such that the final concentration of heparin in the syringe was 1.4 Units/mL.
B. The Hemochron™-8000 was set up to run ACT using the P-215 tubes from the same manufacturer (International Technidyne).
A. A 1 mL sample of the above heparinized blood was admixed and maintained (incubated) with 2.5-10 μl of antagonist compound or saline for 5 minutes at room temperature.
B. The Hemochron™ was started as 400 μl of the test sample was pipetted into the P-215 tube. The tube contents were gently mixed, placed into the Hemochron™ and turned one revolution until the light on the instrument came on.
C. Step B was repeated for the second channel of the instrument within 30 seconds to give an average activated clotting time. […]
The activated clotting time was first measured (in seconds) for control whole blood from each donor containing only 1.4 Units/mL of heparin. The clotting times were then measured as in Example 1 by varying concentrations of antiplatelet compounds B and D in addition to heparin for each donor. […]

[8] = tested on: platelet aggregation; settings: 20 mg/kg infused into femoral vein of anesthetized dogs; cited from earlier work

| route of removal from circulation [4] | change of elimination half-life with decreased creatinine clearance [4] | IC50 [6] [µg/mL] | Compound | inhibition at 0.05 µM [2] [%] | effect of compound concentration on activated clotting time [7] | also measured |
| --- | --- | --- | --- | --- | --- | --- |
|  |  |  | C#C[C@H](CC(=O)OCC)NC(=O)CCC(=O)Nc1ccc(C(=N)N)cc1.Cl [Compound A, ethyl 3S-[[4-[[4-(aminoiminomethyl)phenyl]-amino]-1,4-dioxobutyl]amino]-4-pentynoate monohydrochloride] |  |  | inhibition of platelet function [1]: 54% |
| almost exclusively by the kidney | appreciable increases | 0.027 (≈ 0.0817 µM) | C#C[C@H](CC(=O)O)NC(=O)CCC(=O)Nc1ccc(C(=N)N)cc1 [Compound B, 3S-[[4-[[4-(aminoiminomethyl)phenyl]amino]-1,4-dioxobutyl]amino]-4-pentynoic acid] | ≥ 50 | directly affect the activated clotting time | half-life [3]: short; levels of total compound B (free plus antibody bound) [5]: increased throughout the three infusions |
| almost exclusively by the kidney | appreciable increases | 0.043 (≈ 0.129 µM) | N=C(N)c1ccc(N2CC[C@H](NC(=O)NCCC(=O)O)C2=O)cc1 [Compound D, 3-[[[[1-[4-(aminoiminomethyl)phenyl]-2-oxo-pyrrolidin-3S-yl]amino]carbonyl]amino]propanoic acid] |  | directly affect the activated clotting time | inhibition at 0.1 µM ([2]; 1×10^−7 M): ≥ 50% |
|  |  |  | CC[C@H]1NC(=O)c2cccc(c2)CNC(=O)[C@H](CC(=O)O)NC(=O)CNC(=O)[C@H](CCCNC(=N)N)N(C)C1=O [DMP728, cyclic [D-2-aminobutyryl-N2-methyl-L-arginyl-glycyl-L-aspartyl-3-aminomethyl-benzoic acid] methanesulfonic acid salt] (cyclo([NMeR]GD[3Amb][dAbu])) |  |  | duration of inhibition of platelet aggregation [8]: up to 210 minutes; inhibition of platelet aggregation, measured ex vivo [8]: nearly complete inhibition |
|  |  |  | CCCCS(=O)(=O)N[C@@H](Cc1ccc(OCCCCC2CCNCC2)cc1)C(=O)O [MK383, N-(butylsulfonyl)-0-(4-(4-piperidinyl)butyl)-L-tyrosine, monohydrochloride, reference compound] | ≥ 50 |  |  |
